How the values were obtained:
HSD-1 [1] = biological target: T1, HSD-1 (Homo sapiens, UniProt P28845); test: Surface plasmon resonance binding kinetics in presence of NADPH (residence time); settings: 300 μM NADPH; reciprocal of the dissociation rate constant; read-out: Residence Time (converted)
Source text: Pseudo-irreversible HSD-1 inhibitors can be identified via in vitro enzyme kinetics evaluation, in which they are expected to show longer enzyme residence times compared to other HSD-1 inhibitors. Surface plasmon resonance (SPR) is the resonant oscillation of conduction electrons at the interface between negative and positive permittivity material stimulated by incident light. When a protein is bound to a surface, SPR can be used to detect ligand binding to the protein. […] Association and dissociation of test compounds were monitored in the presence of 300 µM NADPH throughout the experiment.

HSD-1 [2] = biological target: T1, HSD-1; test: Target-mediated drug disposition (TMDD) population PK / PK-PD model

T1 sequence (P28845 whole entry): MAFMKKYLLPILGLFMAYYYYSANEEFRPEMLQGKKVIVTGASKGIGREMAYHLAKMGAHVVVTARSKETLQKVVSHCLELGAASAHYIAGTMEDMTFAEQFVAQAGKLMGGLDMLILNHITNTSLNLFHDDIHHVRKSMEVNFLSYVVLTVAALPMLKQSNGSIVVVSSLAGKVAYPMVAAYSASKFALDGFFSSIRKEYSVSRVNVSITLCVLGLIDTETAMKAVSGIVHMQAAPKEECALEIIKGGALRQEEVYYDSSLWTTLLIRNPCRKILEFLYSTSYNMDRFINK

Cn1c(-c2ccc(C(N)=O)cc2F)nnc1C(C)(C)Oc1c(F)cc(Cl)cc1F [SPI-62, 4-(5-(2-(4-chloro-2,6-difluorophenoxy)propan-2-yl)-4-methyl-4H-1,2,4-triazol-3-yl)-3-fluorobenzamide]
residence time (HSD-1 [1]): 8.92 min | IC50 (HSD-1 [2]): 0.0234 nM | Kd (HSD-1 [2]): 0.183 nM | estimated total target amount (RTOT+RTA) as SPI-62 (HSD-1 [2]; both, human, in vivo): 3.6 mg | Kd lower than the Ki (HSD-1 [2]; in vivo): approximately 60 fold | estimated Kd lower than Ki for purified human HSD-1 (HSD-1 [2]; in vivo): 29 fold | estimated Kd lower than measured Ki for human HSD-1 expressed in CHO cells (HSD-1 [2]; in vivo): 69 fold | Hill coefficient (HSD-1 [2]; model parameter estimate): 1.42 | association rate constant (kon) (HSD-1 [2]; model parameter estimate): 400000 M⁻¹ s⁻¹ | total target amount in the adipose compartment (RTA) (HSD-1 [2]; model parameter estimate): 671 nM | koff (HSD-1 [2]; read-out: dissociation rate constant (koff)): 7.33e-05 s⁻¹

Reference: patent US12329745B2, “Methods and compositions for treating glucocorticoid excess” (Sparrow Pharmaceuticals, Inc., priority 2022, dated 2025)
